Results on two compounds are retold here after EP0546474A1, “Pseurotin F1/F2, new metabolites from Aspergillus fumigatus, process for their preparation and their use as apomorphine antagonists” (HOECHST AKTIENGESELLSCHAFT, priority 1991, dated 1993).

Series [1] is described as follows: Stability in the solid state and in solution. It is filed as physicochemical. Particulars: solid state and solutions in the pH range between 3 and 8, in particular 5 and 7. An excerpt: Die Verbindungen der Formeln la und Ib sind im festen Zustand und in Lösungen im pH-Bereich zwischen 3 und 8, insbesondere 5 und 7, stabil und lassen sich damit in übliche galenische Zubereitungen einarbeiten.

The test system of a further series is Mäusen. Nature of the series: Apomorphine antagonism: inhibition of apomorphine-induced climbing in mice. It is filed as in vivo. To be noted: compound given 30 min (i.p.) or 60 min (p.o.) before apomorphine. The procedure: Die Wirkung der Verbindungen der Formeln la und Ib als Apomorphin Antagonisten wird an Mäusen getestet. Hierzu wird zunächst Apomorphin als 1 %ige Lösung (Verdünnungsmittel:Tylose, z.B. Methocel, Hoechst AG, Frankfurt, Deutschland) einmalig […] injiziert. Die Dosis ist so gewählt, daß sie bei 95 % der Mäuse für ca. 30 Minuten eine anhaltende Klettertätigkeit auslöst (1,5 mg Apomorphin/kg Maus; subcutane Injektion). Tiere, die noch vor der Apomorphingabe eine konstante Klettertätigkeit aufweisen, werden nicht im Test berücksichtigt. Pseurotin F1 oder F2 wird 30 bzw. 60 Min. vor Apomorphin appliziert (i.p. bzw. p.o.). Es wird viermal abgelesen: unmittelbar vor sowie 10, 20 und 30 Min nach Apomorphin-Injektion. Dabei wird das Kletterverhalten pro Maus beurteilt:
Testkriterium ist, ob eine Hemmung des durch Apomorphin verursachten Kletterns eintritt.

Series [2] is described as follows: Solubility in organic solvents. In kind it is physicochemical. Particulars: in CH2C12, CHCl3, Essigsäureethylester, Aceton, Ethanol and Isopropanol; isolated as amorphous solid. An excerpt: Die Pseurotine F1 /F2 werden als amorpher Feststoff isoliert und sind z.B. löslich in CH2C12, CHCl3, Essigsäureethylester, Aceton, Ethanol und Isopropanol. • FAB-MS: m/e = 418 (37 %, [M + H]^+), 400 (12 %) 382 (14 %) • Pseurotin F1: Rf = 0,29; Ethylacetat-H/Heptan (2 : 1) • Pseurotin F2: Rf = 0,20; Ethylacetat-H/Heptan (2:1) (dünnschichtchromatographisch aufgetrennt) Molmasse: 417, 12 (C21 H23NO8)

Setting [3] is: 10 min after apomorphine injection (1,5 mg/kg, s.c.), observed in the majority of treated mice.
The mark [4] stands for this setting: 20 min after apomorphine injection (1,5 mg/kg, s.c.), observed in nearly all animals.

For `CC/C=C\[C@H](O)[C@H](O)C1=C(C)C(=O)[C@]2(O1)C(=O)N[C@](O)(C(=O)c1ccccc1)[C@@H]2O` [Pseurotin F1], the Stabilität result in series [1] is reported as “stabil”. Besides, the “Kletterverhalten pro Maus (Hemmung des durch Apomorphin verursachten Kletterns)” value is given as “nur noch 1 oder 2 Pfoten an der Wand” in the series on Mäusen (setting [3]) and “deutliche Symptome in Form der Kletterhemmung (4 Pfoten am Boden)” in the series with Mäusen (setting [4]). Further, the Löslichkeit entry in series [2] is on record as “löslich”.
The like results for `CC/C=C\[C@H](O)[C@H](O)C1=C(C)C(=O)[C@]2(O1)C(=O)N[C@@](O)(C(=O)c1ccccc1)[C@@H]2O` [Pseurotin F2] were, in that order, “stabil”, “nur noch 1 oder 2 Pfoten an der Wand”, “deutliche Symptome in Form der Kletterhemmung (4 Pfoten am Boden)” and “löslich”.
